According to US20100317515A1, “Azolylmethyloxiranes, use Thereof and Agents Containing the Same” (priority 2007, published 2010):
Read-outs that look alike come from different tables or passages of the source.

Legend:
Botrytis cinerea = test: Activity against gray mold on bell pepper leaves caused by Botrytis cinerea, 1 day protective application (Botrci P1); format: in vivo; details: untreated 90%
Experimental: (§1) The active compounds were prepared separately or jointly as a stock solution comprising 25 mg of active compound which was made up to 10 ml using a mixture of acetone and/or DMSO and the emulsifier Uniperol® EL (wetting agent having emulsifying and dispersing action based on ethoxylated alkylphenols) in a volume ratio of solvent/emulsifier of 99:1. The mixture was then made up to 100 ml with water. This stock solution was diluted with the solvent/emulsifier/water mixture described to give the concentration of active compounds stated below. Alternatively, the active compounds were used as a commercial finished formulation and diluted with water to the concentration of active compounds stated.
Activity Against Gray Mold on Bell Pepper Leaves Caused by Botrytis cinerea, 1 Day Protective Application (Botrci P1)
Bell pepper seedlings were, after 2-3 leaves were well developed, sprayed to runoff point with an aqueous suspension having the active compound concentration stated below. The next day, the treated plants were inoculated with a spore suspension of Botrytis cinerea in a 2% strength biomalt solution. The test plants were then placed in a dark climatized chamber at 22 to 24° C. and high atmospheric humidity. After 5 days, the extent of the fungal infection on the leaves could be determined visually in %.

Puccinia recondita = test: Protective activity against Puccinia recondita on wheat (brown rust of wheat) (Puccrt P1); format: in vivo
Alternaria solani = test: Activity against the early blight pathogen Alternaria solani in the microtiter test (Alteso); format: cell-based; details: day 7, relative to active compound-free control (100%)
Septoria tritici = test: Activity against the Septoria leaf spot pathogen Septoria tritici in the microtiter test (Septtr); format: cell-based
Pyricularia oryzae = format: cell-based
Leptosphaeria nodorum = test: Activity against the leaf and glume blotch pathogen Leptosphaeria nodorum in the microtiter test (Leptno); format: cell-based
Phakopsora pachyrhizi = test: Curative activity against soybean rust caused by Phakopsora pachyrhizi (Phakpa K1); format: in vivo, Phakopsora pachyrhizi on soybean; details: curative application, untreated 90%
Experimental: as §1
Curative Activity Against Soybean Rust Caused by Phakopsora pachyrhizi (Phakpa K1)
Leaves of potted soybean seedlings were inoculated with a spore suspension of soybean rust (Phakopsora pachyrhizi). The pots were then placed in a chamber with high atmospheric humidity (90 to 95%) and at 23 to 27° C. for 24 hours. During this time, the spores germinated and the germ tubes penetrated into the leaf tissue. The infected plants were then sprayed to runoff point with the active compound solution described above at the active compound concentration stated below. After the spray coating had dried on, the test plants were cultivated in a greenhouse at temperatures between 23 and 27° C. and 60 to 80% relative atmospheric humidity for 14 days. The extent of the rust fungus development on the leaves was then determined visually in % infection.

[1] = 31 ppm, microtiter test, day 7, relative to active compound-free control (100%)
[2] = 31 ppm, microtiter test, comparative experiments

CC(=O)Sc1ncnn1C[C@]1(c2ccc(F)cc2F)O[C@@H]1c1ccccc1Cl (relative stereo) [Example 14, S-{2-[3-(2-chlorophenyl)-2-(2,4-difluorophenyl)oxiranylmethyl]-2H-[1,2,4]triazole-3-yl} rel-(2S,3R)thio acetate]
Infection in % at 600 ppm for Botrci P1 (Botrytis cinerea): 3% | Infection in % at 600 ppm for Puccrt P1 (Puccinia recondita; in vivo): 0%

N#CSc1ncnn1C[C@]1(c2ccc(F)cc2F)O[C@@H]1c1ccccc1Cl (relative stereo) [Example 12, 1-[rel-(2S,3R)-3-(2-chlorophenyl)-2-(2,4-difluorophenyl)oxiran-2-ylmethyl]-5-thiocyanato-1H-1,2,4-triazole]
Growth in % at 31 ppm for Alteso (Alternaria solani): 43% | Growth in % at 31 ppm for Septtr (Septoria tritici; [1]): 1%

Fc1ccc([C@@]2(Cn3ncnc3S)O[C@@H]2c2ccccc2F)cc1 [WO9638440, p. 9 (2nd compound)]
Growth in % at 31 ppm for Pyrior (Pyricularia oryzae; [2]): 30%

CCOP(=S)(OCC)Sc1ncnn1C[C@]1(c2ccc(F)cc2F)O[C@@H]1c1ccccc1Cl (relative stereo) [Example 13, S-1-[rel-(2S,3R)-3-(2-chlorophenyl)-2-(2,4-difluorophenyl)oxiran-2-ylmethyl]-1H-1,2,4-triazol-5-yl O,O-diethyl phosphorodithioate]
Growth in % at 31 ppm for Septtr (Septoria tritici): 4%

Fc1ccc([C@@]2(Cn3nc[nH]c3=S)O[C@@H]2c2ccccc2Cl)cc1F (relative stereo) [Example 3, 1-[rel-(2S,3R)-3-(2-chlorophenyl)-2-(3,4-difluorophenyl)oxiran-2-ylmethyl]-1H-1,2,4-triazole-5(4-H)-thione]
Infection in % at 600 ppm for Puccrt P1 (Puccinia recondita; in vivo): 0% | Growth in % at 31 ppm for Leptno (Leptosphaeria nodorum): 60%

CSc1ncnn1C[C@]1(c2ccc(F)cc2F)O[C@@H]1c1ccccc1Cl (relative stereo) [Example 10, 1-[rel-(2S,3R)-3-(2-chlorophenyl)-2-(2,4-difluorophenyl)oxiran-2-ylmethyl]-5-(methylthio)-1H-1,2,4-triazole]
Infection in % at 600 ppm for Phakpa K1 (Phakopsora pachyrhizi): 0%

Fc1ccc([C@@]2(Cn3ncnc3[S-])O[C@@H]2c2ccccc2Cl)c(F)c1.[Na+] (relative stereo) [Example 16, sodium rel-(2S,3R)-2-[3-(2-chlorophenyl)-2-(2,4-difluorophenyl)oxiranylmethyl]-2H-[1,2,4]triazole-3-thiolate]
Growth in % at 31 ppm for Leptno (Leptosphaeria nodorum; [1]): 4%

S-{2-[3-(2-chlorophenyl)-2-(2,4-difluorophenyl)oxiranylmethyl]-2H-[1,2,4]triazole-3-yl}rel-(2S,3R)thio carbonate [Example 15]
Growth in % at 31 ppm for Pyrior (Pyricularia oryzae): 64%

Fc1ccc([C@]2(Cn3cnc(S)n3)O[C@H]2c2ccccc2Cl)c(F)c1 (relative stereo) [Example 1, 1-[rel-(2R,3S)-3-(2-chlorophenyl)-2-(2,4-difluorophenyl)oxiranylmethyl]-1H-[1,2,4]triazole-3-thiol]
Infection in % at 600 ppm for Botrci P1 (Botrytis cinerea): 7% | Infection in % at 600 ppm for Puccrt P1 (Puccinia recondita; 600 ppm, protective spray 1 day before inoculation, wheat, untreated 90%): 0%

Fc1ccc([C@@]2(Cn3nc[nH]c3=S)O[C@@H]2c2ccccc2F)c(F)c1 (relative stereo) [Example 4, 1-[rel-(2S,3R)-2-(2,4-difluorophenyl)-3-(2-fluorophenyl)oxiran-2-ylmethyl]-1H-1,2,4-triazole-5(4H)-thione]
Growth in % at 31 ppm for Pyrior (Pyricularia oryzae; [2]): 7% | Growth in % at 31 ppm for Pyrior (Pyricularia oryzae; [1]): 7%

Fc1ccc([C@@]2(Cn3nc[nH]c3=S)O[C@@H]2c2ccccc2Cl)cc1Br [WO9638440, p. 7 (2nd compound)]
Growth in % at 31 ppm for Leptno (Leptosphaeria nodorum; [2]): 100%

COC(=O)Sc1ncnn1CC1(c2ccc(F)cc2F)OC1c1ccccc1Cl (centres unmarked) [WO9742178, p. 55 (4th compound)]
Growth in % at 31 ppm for Pyrior (Pyricularia oryzae; [2]): 94%

CSc1ncnn1C[C@]1(c2ccc(F)cc2F)O[C@@H]1c1ccccc1F (relative stereo) [Example 8, 1-[rel-(2S,3R)-2-(2,4-difluorophenyl)-3-(2-fluorophenyl)oxiran-2-ylmethyl]-5-(methylthio)-1H-1,2,4-triazole]
Infection in % at 600 ppm for Phakpa K1 (Phakopsora pachyrhizi): 1%

CSc1ncnn1C[C@]1(c2ccc(F)c(F)c2)O[C@@H]1c1ccccc1C(F)(F)F (relative stereo) [Example 9, 1-[rel-(2S,3R)-2-(3,4-difluorophenyl)-3-(2-(trifluoromethyl)phenyl)oxiran-2-ylmethyl]-5-(methylthio)-1H-1,2,4-triazole]
Infection in % at 600 ppm for Phakpa K1 (Phakopsora pachyrhizi): 0%

Fc1ccc([C@@]2(Cn3nc[nH]c3=S)O[C@@H]2c2ccccc2C(F)(F)F)cc1F (relative stereo) [Example 5, 1-[rel-(2S,3R)-2-(3,4-difluorophenyl)-3-(2-(trifluoromethyl)phenyl)oxiran-2-ylmethyl]-1H-1,2,4-triazole-5(4H)-thione]
Infection in % at 300 ppm for Puccrt P1 (Puccinia recondita; 300 ppm, protective spray 1 day before inoculation, wheat, untreated 90%): 10%
